Laboratory results as given in patent US20250197403A1, “HETEROARYL COMPOUNDS FOR TREATMENT OF COMPLEMENT FACTOR D MEDIATED DISORDERS” (Achillion Pharmaceuticals, Inc., priority 2020, published 2025).

Each compound was assayed against Human Factor D (Homo sapiens (Human), UniProt P00746) (assay: Human Factor D Assay). Conditions: Human Factor D 80 nM, substrate Z-L-Lys-SBzl, assay according to Example 3.
Type: biochemical
Protocol: The assay according to Example 3 was used to determine the IC50's of the compounds. Other standard factor D inhibition assays are also available.
Human Factor D (purified from human serum, Complement Technology, Inc.) at 80 nM final concentration is incubated with test compound at various concentrations for 5 min at room temperature in 50 mM Tris, 1M NaCl, pH 7.5. A synthetic substrate Z-L-Lys-SBzl and DTNB (Ellman's reagent) are added to final concentrations of 100 μM each. Absorbance at 405 nm (A405) is recorded at 30 second intervals for 30 min using a microplate spectrophotometer. IC50 values are calculated by nonlinear regression of complement Factor D reaction rates as a function of test compound concentration.

Sequence of Human Factor D (P00746 26-253): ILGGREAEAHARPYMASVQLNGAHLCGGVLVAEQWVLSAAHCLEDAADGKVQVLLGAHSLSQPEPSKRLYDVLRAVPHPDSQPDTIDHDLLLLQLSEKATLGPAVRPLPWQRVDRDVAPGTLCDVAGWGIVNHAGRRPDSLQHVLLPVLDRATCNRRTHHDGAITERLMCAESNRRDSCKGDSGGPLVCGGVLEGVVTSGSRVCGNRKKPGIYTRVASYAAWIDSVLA

SMILES | IC50 [nM]
CC(=O)c1cn(CC(=O)N2C[C@@](F)(CF)CC2C(=O)Nc2nc(C(F)(F)F)ccc2C#N)c2c(C)nc(-c3cnc4cc(C)nn4c3)cc12 (stereo partly drawn) [Compound 33, (4R)-1-(2-(3-acetyl-7-methyl-5-(2-methylpyr-azolo[1,5-a]pyrimidin-6-yl)-1H-pyrrolo[2,3-c]pyr-idin-1-yl)acetyl)-N-(3-cyano-6-(trifluoromethyl)-pyridin-2-yl)-4-fluoro-4-(fluoromethyl)pyrrolidine-2-carboxamide] | < 1000
COCc1ccc(C(F)(F)F)nc1NC(=O)[C@@H]1C[C@@]2(C)C[C@H]2N1C(=O)Cn1cc(C(C)=O)c2cc(-c3cnc(C)nc3)nc(C)c21 [Compound 41, (1R,3S,5R)-2-(2-(3-acetyl-7-methyl-5-(2-methylpyr-imidin-5-yl)-1H-pyrrolo [2,3-c]pyridin-1-yl)acetyl)-N-(3-(methoxymethyl)-6-(trifluoromethyl)pyridin-2-yl)-5-methyl-2-azabicyclo [3.1.0]hexane-3-carbox-amide] | < 1000
CC(=O)c1nn(CC(=O)N2[C@H](C(=O)Nc3nc(Br)c(F)cc3C)C[C@@]3(C)C[C@@H]23)c2c(C)cc(-c3cnc([C@H](C)O)nc3)cc12 [Compound 17, (1R,3S,5R)-2-(2-(3-acetyl-5-(2-((S)-1-hydroxyethyl)-pyrimidin-5-yl)-7-methyl-1H-indazol-1-yl)acetyl)-N-(6-bromo-5-fluoro-3-meth-ylpyridin-2-yl)-5-methyl-2-azabicyclo[3.1.0]hexane-3-carboxamide] | < 1000
CC(=O)c1cn(CC(=O)N2C[C@H](F)C[C@H]2C(=O)N[C@@H](C)C(F)=C(C)C)c2c(C)cc(-c3cnc4cc(C)nn4c3)cc12 [Compound 37, (2S,4R)-1-(2-(3-acetyl-7-methyl-5-(2-methylpyr-azolo[1,5-a]pyrimidin-6-yl)-1H-indol-1-yl)acetyl)-4-fluoro-N-((S)-3-fluoro-4-methylpent-3-en-2-yl)pyr-rolidine-2-carboxamide] | < 1000
CC(=O)c1cn(CC(=O)N2[C@H](C(=O)Nc3nc(C(F)(F)F)ccc3Cl)C[C@@]3(C)C[C@@H]23)c2c(C)cc(-c3ccc4nc(C)nn4c3)cc12 [Compound 3, (1R,3S,5R)-2-(2-(3-acetyl-7-methyl-5-(2-methyl-[1,2,4]triazolo[1,5-a]pyr-idin-6-yl)-1H-indol-1-yl)-acetyl)-N-(3-chloro-6-(tri-fluoromethyl)pyridin-2-yl)-5-methyl-2-azabicyclo-[3.1.0]hexane-3-carbox-amide] | < 1000
CC(=O)c1cn(CC(=O)N2[C@H](C(=O)Nc3cncc(C(F)(F)F)n3)C[C@@]3(C)C[C@@H]23)c2c(C)cc(-c3cnc(C)nc3)cc12 [Compound 45, (1R,3S,5R)-2-(2-(3-acetyl-7-methyl-5-(2-methylpyr-imidin-5-yl)-1H-indol-1-yl)acetyl)-5-methyl-N-(6-(trifluoromethyl)pyrazin-2-yl)-2-azabicyclo[3.1.0] hexane-3-carboxamide] | < 1000
CC(=O)c1cn(CC(=O)N2[C@H](C(=O)Nc3nc(Br)ccc3C)C[C@@]3(C)C[C@@H]23)c2cc3c(cc12)NC1(COC1)CO3 [Compound 20, (1R,3S,5R)-2-(2-(8′-acetyl-1′H-spiro[oxetane-3,2′-[1,4]oxazino[3,2-f]indol]-6′(3′H)-yl)acetyl)-N-(6-bromo-3-methylpyridin-2-yl)-5-methyl-2-azabicyclo [3.1.0]hexane-3-carbox-amide] | < 1000
COCc1ccc(C(F)(F)F)nc1NC(=O)[C@@H]1C[C@@]2(C)C[C@H]2N1C(=O)Cn1cc(C(C)=O)c2cc(-c3ccc4nc(C)nn4c3)cc(C)c21 [Compound 40, (1R,3S,5R)-2-(2-(3-acetyl-7-methyl-5-(2-methyl-[1,2,4]triazolo[1,5-a]pyr-idin-6-yl)-1H-indol-1-yl)-acetyl)-N-(3-(methoxy-methyl)-6-(trifluorometh-yl)pyridin-2-yl)-5-methyl-2-azabicyclo[3.1.0]hexane-3-carboxamide] | < 1000
COCc1ccc(C(F)(F)F)nc1NC(=O)[C@@H]1[C@@H]2C[C@@H]2CN1C(=O)Cn1cc(C(C)=O)c2cc(-c3ccc4nc(C)nn4c3)cc(C)c21 [Compound 4, (1R,2S,5S)-3-(2-(3-acetyl-7-methyl-5-(2-methyl-[1,2,4]triazolo[1,5-a]pyr-idin-6-yl)-1H-indol-1-yl)-acetyl)-N-(3-(methoxy-methyl)-6-(trifluorometh-yl)pyridin-2-yl)-3-aza-bicyclo[3.1.0]hexane-2-carboxamide] | < 1000
COCc1ccc(C(F)(F)F)nc1NC(=O)[C@@H]1[C@@H]2C[C@@H]2CN1C(=O)Cn1cc(C(C)=O)c2cc(-c3cnc4cc(C)nn4c3)cc(C)c21 [Compound 7, (1R,2S,5S)-3-(2-(3-acetyl-7-methyl-5-(2-methylpyr-azolo[1,5-a]pyrimidin-6-yl)-1H-indol-1-yl)acetyl)-N-(3-(methoxymethyl)-6-(trifluoromethyl)pyridin-2-yl)-3-azabicyclo[3.1.0] hexane-2-carboxamide] | < 1000
CC(=O)c1cn(CC(=O)N2[C@H](C(=O)N[C@@H](C)C(F)=C(C)C)C[C@@]3(C)C[C@@H]23)c2c(C)cc(-c3cnc4cc(C)nn4c3)cc12 [Compound 30, (1R,3S,5R)-2-(2-(3-acetyl-7-methyl-5-(2-methylpyr-azolo[1,5-a]pyrimidin-6-yl)-1H-indol-1-yl)acetyl)-N-((S)-3-fluoro-4-methyl-pent-3-en-2-yl)-5-methyl-2-azabicyclo[3.1.0]hexane-3-carboxamide] | < 1000
CC(=O)c1nn(CC(=O)N2[C@H](C(=O)Nc3nc(Br)c(F)cc3C)C[C@@]3(C)C[C@@H]23)c2c(C)cc(-c3cnc([C@@H](C)O)nc3)cc12 [Compound 18, (1R,3S,5R)-2-(2-(3-acetyl-5-(2-((R)-1-hydroxyethyl)-pyrimidin-5-yl)-7-methyl-1H-indazol-1-yl)acetyl)-N-(6-bromo-5-fluoro-3-meth-ylpyridin-2-yl)-5-methyl-2-azabicyclo[3.1.0]hexane-3-carboxamide] | < 1000
CC(=O)c1cn(CC(=O)N2[C@H](C(=O)Nc3ccn(CC(F)(F)F)n3)C[C@@]3(C)C[C@@H]23)c2c(C)cc(-c3ccc4nc(C)nn4c3)cc12 [Compound 65, (1R,3S,5R)-2-(2-(3-acetyl-7-methyl-5-(2-methyl-[1,2,4]triazolo[1,5-a]pyr-idin-6-yl)-1H-indol-1-yl)-acetyl)-5-methyl-N-(1-(2,2,2-trifluoroethyl)-1H-pyrazol-3-yl)-2-azabicyclo [3.1.0]hexane-3-carbox-amide] | < 1000
CC(=O)c1cn(CC(=O)N2[C@H](C(=O)Nc3nc(C(F)(F)F)c(F)cc3C)C[C@@]3(C)C[C@@H]23)c2c(C)cc(-c3cnc(C)nc3)cc12 [Compound 71, (1R,3S,5R)-2-(2-(3-acetyl-7-methyl-5-(2-methylpyr-imidin-5-yl)-1H-indol-1-yl)acetyl)-N-(5-fluoro-3-methyl-6-(trifluorometh-yl)pyridin-2-yl)-5-methyl-2-azabicyclo[3.1.0]hexane-3-carboxamide] | < 1000
CC(=O)c1cn(CC(=O)N2[C@H](C(=O)Nc3nc(C(F)(F)F)ccc3C)C[C@@]3(C)C[C@@H]23)c2c(C)c(F)c(-c3cnc(C)nc3)cc12 [Compound 44, (1R,3S,5R)-2-(2-(3-acetyl-6-fluoro-7-methyl-5-(2-methylpyrimidin-5-yl)-1H-indol-1-yl)acetyl)-5-meth-yl-N-(3-methyl-6-(tri-fluoromethyl)pyridin-2-yl)-2-azabicyclo[3.1.0] hexane-3-carboxamide] | < 1000
CC(=O)c1nn(CC(=O)N2[C@H](C(=O)Nc3nc(Br)ccc3C)C[C@@]3(C)C[C@@H]23)c2cc3c(cc12)-c1cnc(C)nc1C=CC3 [Compound 69, (1R,3S,5R)-2-(2-(11-acet-yl-3-methylpyrimido [4′,5′:6,7]cyclohepta[1,2-f]indazol-9(7H)-yl)acetyl)-N-(6-bromo-3-methylpyr-idin-2-yl)-5-methyl-2-aza-bicyclo[3.1.0]hexane-3-carboxamide] | < 1000
CC(=O)c1cn(CC(=O)N2[C@H](C(=O)Nc3nc(Br)ccc3Cl)C[C@@]3(C)C[C@@H]23)c2c(C)cc(-c3cnc(C)nc3)cc12 [Compound 68, (1R,3S,5R)-2-(2-(3-acetyl-7-methyl-5-(2-methylpyr-imidin-5-yl)-1H-indol-1-yl)acetyl)-N-(6-bromo-3-chloropyridin-2-yl)-5-methyl-2-azabicyclo[3.1.0] hexane-3-carboxamide] | < 1000
CC(=O)c1cn(CC(=O)N2[C@H](C(=O)Nc3nc(C(F)(F)F)ccc3Cl)C[C@@]3(C)C[C@@H]23)c2c(C)nc(-c3cnc(C)nc3)cc12 [Compound 42, (1R,3S,5R)-2-(2-(3-acetyl-7-methyl-5-(2-methylpyr-imidin-5-yl)-1H-pyrrolo [2,3-c]pyridin-1-yl)acetyl)-N-(3-chloro-6-(trifluoro-methyl)pyridin-2-yl)-5-methyl-2-azabicyclo[3.1.0] hexane-3-carboxamide] | < 1000
CC(=O)c1cn(CC(=O)N2[C@H](C(=O)Nc3nc(Br)ccc3C)C[C@@]3(C)C[C@@H]23)c2c(C)c(F)c(-c3cnc4cc(C)nn4c3)cc12 [Compound 50, (1R,3S,5R)-2-(2-(3-acetyl-6-fluoro-7-methyl-5-(2-methylpyrazolo[1,5-a]pyr-imidin-6-yl)-1H-indol-1-yl)acetyl)-N-(6-bromo-3-methylpyridin-2-yl)-5-methyl-2-zabicyclo[3.1.0] hexane-3-carboxamide] | < 1000
CC(=O)c1cn(CC(=O)N2[C@H](C(=O)N[C@H](C)C(F)=C(C)C)C[C@@]3(C)C[C@@H]23)c2c(C)cc(-c3cnc4cc(C)nn4c3)cc12 [Compound 27, (1R,3S,5R)-2-(2-(3-acetyl-7-methyl-5-(2-methylpyr-azolo[1,5-a]pyrimidin-6-yl)-1H-indol-1-yl)acetyl)-N-((R)-3-fluoro-4-methyl-pent-3-en-2-yl)-5-methyl-2-azabicyclo[3.1.0]hexane-3-carboxamide] | < 1000
